The NIST ThermoML archive (doi:10.1016/j.fluid.2019.05.003)
± gives the expanded uncertainty stated by the source.

Test: xn = mol fraction of the nth substance listed
Conditions: 101 kPa, Liquid; for viscosity: Falling or rolling sphere viscometry; for mass density: Vibrating tube method

OCC[n+]1ccccc1.[Br-] [1-(2-hydroxyethyl)pyridinium bromide] + O
Conditions	mass density [kg/m3]	viscosity [mPa·s]
298.15 K, x1 = 0.022	1071.4 ± 0.6	1.138 ± 0.069
298.15 K, x1 = 0.045	1131.4 ± 0.5	1.415 ± 0.086
298.15 K, x1 = 0.066	1177.3 ± 0.5	1.761 ± 0.11
298.15 K, x1 = 0.085	1211 ± 0.4	2.174 ± 0.13
298.15 K, x1 = 0.114	1256.4 ± 0.4	2.918 ± 0.18
298.15 K, x1 = 0.152	1296.4 ± 0.4	4.134 ± 0.25
298.15 K, x1 = 0.195	1334.4 ± 0.4	6.391 ± 0.39
298.15 K, x1 = 0.226	1356.7 ± 0.5	8.964 ± 0.54
298.15 K, x1 = 0.261	1377.5 ± 0.5	11.93 ± 0.72
303.15 K, x1 = 0.022	1069.5 ± 0.6	1.04 ± 0.063
303.15 K, x1 = 0.045	1129.2 ± 0.5	1.268 ± 0.077
303.15 K, x1 = 0.066	1174.8 ± 0.5	1.576 ± 0.095
303.15 K, x1 = 0.085	1208.3 ± 0.4	1.937 ± 0.12
303.15 K, x1 = 0.114	1251.9 ± 0.4	2.577 ± 0.16
303.15 K, x1 = 0.152	1293.5 ± 0.4	3.62 ± 0.22
303.15 K, x1 = 0.195	1331.4 ± 0.4	5.528 ± 0.34
303.15 K, x1 = 0.226	1353.6 ± 0.5	7.799 ± 0.47
303.15 K, x1 = 0.261	1374.3 ± 0.5	10.25 ± 0.62
308.15 K, x1 = 0.022	1067.5 ± 0.6	0.947 ± 0.057
308.15 K, x1 = 0.045	1126.8 ± 0.5	1.148 ± 0.069
308.15 K, x1 = 0.066	1172.2 ± 0.5	1.424 ± 0.086
308.15 K, x1 = 0.085	1205.7 ± 0.4	1.744 ± 0.11
308.15 K, x1 = 0.114	1247.7 ± 0.4	2.309 ± 0.14
308.15 K, x1 = 0.152	1290.5 ± 0.4	3.233 ± 0.2
308.15 K, x1 = 0.195	1328.4 ± 0.4	4.908 ± 0.3
308.15 K, x1 = 0.226	1350.4 ± 0.5	6.784 ± 0.41
308.15 K, x1 = 0.261	1371.2 ± 0.5	8.888 ± 0.54
313.15 K, x1 = 0.022	1065.2 ± 0.6	0.867 ± 0.052
313.15 K, x1 = 0.045	1124.3 ± 0.5	1.046 ± 0.063
313.15 K, x1 = 0.066	1169.6 ± 0.5	1.294 ± 0.078
313.15 K, x1 = 0.085	1202.9 ± 0.4	1.581 ± 0.096
313.15 K, x1 = 0.114	1244.9 ± 0.4	2.082 ± 0.13
313.15 K, x1 = 0.152	1287.5 ± 0.4	2.894 ± 0.17
313.15 K, x1 = 0.195	1325.3 ± 0.4	4.33 ± 0.26
313.15 K, x1 = 0.226	1347.3 ± 0.5	5.9 ± 0.36
313.15 K, x1 = 0.261	1368 ± 0.5	7.704 ± 0.47
318.15 K, x1 = 0.022	1062.7 ± 0.6	0.8 ± 0.048
318.15 K, x1 = 0.045	1121.8 ± 0.5	0.96 ± 0.058
318.15 K, x1 = 0.066	1166.9 ± 0.5	1.184 ± 0.072
318.15 K, x1 = 0.085	1200.1 ± 0.4	1.44 ± 0.087
318.15 K, x1 = 0.114	1241.9 ± 0.4	1.887 ± 0.11
318.15 K, x1 = 0.152	1284.5 ± 0.4	2.604 ± 0.16
318.15 K, x1 = 0.195	1322.2 ± 0.4	3.868 ± 0.23
318.15 K, x1 = 0.226	1344.2 ± 0.4	5.148 ± 0.31
318.15 K, x1 = 0.261	1364.8 ± 0.5	6.721 ± 0.41
323.15 K, x1 = 0.022	1060.2 ± 0.6	0.741 ± 0.045
323.15 K, x1 = 0.045	1119.1 ± 0.5	0.886 ± 0.054
323.15 K, x1 = 0.066	1164.1 ± 0.5	1.086 ± 0.066
323.15 K, x1 = 0.085	1197.2 ± 0.4	1.32 ± 0.08
323.15 K, x1 = 0.114	1238.9 ± 0.4	1.721 ± 0.1
323.15 K, x1 = 0.152	1281.4 ± 0.4	2.36 ± 0.14
323.15 K, x1 = 0.195	1319 ± 0.4	3.478 ± 0.21
323.15 K, x1 = 0.226	1341 ± 0.4	4.527 ± 0.27
323.15 K, x1 = 0.261	1361.6 ± 0.5	5.895 ± 0.36
328.15 K, x1 = 0.022	1057.8 ± 0.6	0.692 ± 0.042
328.15 K, x1 = 0.045	1116.2 ± 0.5	0.82 ± 0.05
328.15 K, x1 = 0.066	1161.1 ± 0.5	1.008 ± 0.061
328.15 K, x1 = 0.085	1194.2 ± 0.4	1.215 ± 0.074
328.15 K, x1 = 0.114	1235.9 ± 0.4	1.578 ± 0.095
328.15 K, x1 = 0.152	1278.3 ± 0.4	2.149 ± 0.13
328.15 K, x1 = 0.195	1315.9 ± 0.4	3.137 ± 0.19
328.15 K, x1 = 0.226	1337.8 ± 0.4	4.03 ± 0.24
328.15 K, x1 = 0.261	1358.4 ± 0.5	5.207 ± 0.32
333.15 K, x1 = 0.022	1055.5 ± 0.5	0.645 ± 0.039
333.15 K, x1 = 0.045	1113.1 ± 0.5	0.766 ± 0.046
333.15 K, x1 = 0.066	1158.1 ± 0.5	0.933 ± 0.056
333.15 K, x1 = 0.085	1191.2 ± 0.4	1.126 ± 0.068
333.15 K, x1 = 0.114	1232.8 ± 0.4	1.451 ± 0.088
333.15 K, x1 = 0.152	1275.2 ± 0.4	1.969 ± 0.12
333.15 K, x1 = 0.195	1312.7 ± 0.4	2.833 ± 0.17
333.15 K, x1 = 0.226	1334.6 ± 0.4	3.615 ± 0.22
333.15 K, x1 = 0.261	1355.2 ± 0.5	4.632 ± 0.28
338.15 K, x1 = 0.022	1053.3 ± 0.5	0.608 ± 0.037
338.15 K, x1 = 0.045	1111 ± 0.5	0.716 ± 0.043
338.15 K, x1 = 0.066	1155.7 ± 0.5	0.869 ± 0.053
338.15 K, x1 = 0.085	1187.8 ± 0.4	1.045 ± 0.063
338.15 K, x1 = 0.114	1229.7 ± 0.4	1.344 ± 0.081
338.15 K, x1 = 0.152	1272 ± 0.4	1.809 ± 0.11
338.15 K, x1 = 0.195	1309.5 ± 0.4	2.599 ± 0.16
338.15 K, x1 = 0.226	1331.4 ± 0.4	3.284 ± 0.2
338.15 K, x1 = 0.261	1352 ± 0.5	4.101 ± 0.25
343.15 K, x1 = 0.022	1051 ± 0.5	0.571 ± 0.035
343.15 K, x1 = 0.045	1108.4 ± 0.5	0.674 ± 0.041
343.15 K, x1 = 0.066	1153 ± 0.5	0.816 ± 0.049
343.15 K, x1 = 0.085	1184.6 ± 0.4	0.976 ± 0.059
343.15 K, x1 = 0.114	1226.5 ± 0.4	1.257 ± 0.076
343.15 K, x1 = 0.152	1268.8 ± 0.4	1.696 ± 0.1
343.15 K, x1 = 0.195	1306.3 ± 0.4	2.37 ± 0.14
343.15 K, x1 = 0.226	1328.2 ± 0.4	2.945 ± 0.18
343.15 K, x1 = 0.261	1348.7 ± 0.5	3.732 ± 0.23
348.15 K, x1 = 0.022	1048.8 ± 0.5	0.538 ± 0.033
348.15 K, x1 = 0.045	1105.8 ± 0.5	0.634 ± 0.038
348.15 K, x1 = 0.066	1150.3 ± 0.5	0.763 ± 0.046
348.15 K, x1 = 0.085	1181.8 ± 0.4	0.911 ± 0.055
348.15 K, x1 = 0.114	1223.1 ± 0.4	1.197 ± 0.072
348.15 K, x1 = 0.152	1265.5 ± 0.4	1.605 ± 0.097
348.15 K, x1 = 0.195	1303 ± 0.4	2.228 ± 0.14
348.15 K, x1 = 0.226	1324.9 ± 0.4	2.693 ± 0.16
348.15 K, x1 = 0.261	1345.5 ± 0.5	3.372 ± 0.2
